The record followed here is patent US20170042962A1, “AGENT FOR PREVENTING OR AM[…] ENDOTHELIAL MALFUNCTION” (KYOWA HAKKO BIO CO., LTD., priority 2012, published 2017).

SMILES strings stand for the structures.

The subject of this assay is HUVEC. Nature of the assay: NO production (nitrite, NO2, in culture supernatant by HPLC) after adding samples to HUVEC. It is filed as cell-based, human. Conditions: citrulline final concentration 0.3 mM, 24-hour culture, vs control (PBS). The procedure:
The cells were cultured in at 37° C., in 5% CO2 incubator, and used for experiment after 4 to 6 passages. Citrulline and reduced glutathione were obtained from Kyowa Hakko Bio.
A cell suspension (0.45 mL) with the adjusted initial cell concentration of 5×10^5 cells/mL was inoculated in a 24-well plate (IWAKI).
Media with the sole addition of solvent (PBS) were used as a control group. After 24-hour culture, the cell culture (100 μL) was centrifuged at 12,000 rpm for 10 minutes, and the concentration of nitrite (NO2), which is the stable NO metabolite, in culture supernatant was quantified by HPLC (ENO-20, EICOM).

With `NC(=O)NCCC[C@H](N)C(=O)O` [citrulline, L-citrulline], the “effect on NO production (nitrite concentration in culture supernatant)” value was “no effect”.
